Converted amounts (≈) assume the structure as drawn. Ends that are not written are not given here.

The subject of series [1] is Escherichia coli ATCC 25922. Kind of series: microbe, parasite or virus in culture. As to conditions: E. coli ATCC 25922, 37 °C, 16–18 h, ND = no detection at the highest tested concentration. In kind it is cell-based. The method, then:
(§1) The following microorganisms were used to determine the minimum inhibitory concentration (MIC) and minimum bactericidal concentration (MBC) of the peptides: Gram-positive Staphylococcus aureus ATCC 25923, Gram-negative Escherichia coli ATCC 25922, Klebsiella pneumoniae ATCC 27736, and Pseudomonas aeruginosa ATCC 27853. The assays were conducted according to the protocol described by Erviana et al., with some modifications.
(§2) The antibacterial activity of the modified CeHS-1 analogs was evaluated using MIC and MBC assays. The MIC (minimum inhibitory concentration) is defined as the lowest concentration of antimicrobial peptides (AMPs) or other agents that inhibits visible bacterial growth. In contrast, the MBC (minimum bactericidal concentration) is defined as the lowest concentration of AMPs that kills 99.9% of the bacterial inoculum under the specified conditions. The determination of MIC values was performed using a 96-well plate assay. Initially, peptides were serially diluted in the wells. Then, 10 µL of bacterial inoculum, previously adjusted to a cell density of 2.2 × 10^6 CFU/mL, was added to each well. The plates were incubated at 37 °C for 16–18 h. The MIC was determined by measuring the optical density at 600 nm (OD600), with the lowest concentration of AMPs that inhibited visible bacterial growth defined as the MIC. […] The lowest concentration of AMPs at which no bacterial colonies were observed was defined as the MBC [47].

Series [2] relates to Klebsiella pneumoniae ATCC 27736. In words: microbe, parasite or virus in culture. Type of series: cell-based. The following applies: K. pneumoniae ATCC 27736, 37 °C, 16–18 h, ND = no detection at the highest tested concentration. The method, then:
as §1, §2

Series [3] has as its system Pseudomonas aeruginosa ATCC 27853. Kind of series: microbe, parasite or virus in culture. Type of series: cell-based. The following applies: P. aeruginosa ATCC 27853, 37 °C, 16–18 h, ND = no detection at the highest tested concentration. On the procedure:
as §1, §2

For series [4], the system named is Staphylococcus aureus ATCC 25923. Kind of series: microbe, parasite or virus in culture. Type of series: cell-based. The following applies: S. aureus ATCC 25923, 37 °C, 16–18 h, ND = no detection at the highest tested concentration. On the procedure:
as §1, §2

The subject of series [5] is S. aureus cytoplasmic membrane. In kind it is cell-based, Staphylococcus aureus. The following applies: S. aureus 10^6 CFU/mL in PBS, 0.25, 0.5 and 1 MIC, 1 h, 37 °C; flow cytometry; at least triplicate.
Experimental: A bacterial suspension of S. aureus was cultured in LB medium to the exponential phase (OD600 = 0.5). […] Following incubation, 42 µL of SYTOX™ Green Ready Flow™ Reagent (Invitrogen, Thermo Fisher Scientific, Carlsbad, CA, USA) was added to the peptide-treated cells and incubated for an additional 10 min at 25 °C. Fluorescence emission was measured using flow cytometry. The cell population was gated based on forward scatter and side scatter parameters. Cells with compromised membranes were identified by their fluorescence (excitation at 488 nm and detection at 530 nm with a 30 nm bandpass filter). The mean fluorescence intensity and the percentage of fluorescent cells were determined by analyzing 100,000 cells per sample. Each experiment was performed in at least triplicate. Flow cytometry measurements were conducted using a BD FACSCanto II system (BD Biosciences, Wokingham, UK).
Series [6] concerns human red blood cells (hRBCs). In words: Hemolytic activity assay. In kind it is cell-based. The following applies: 500 µg/mL peptide (highest concentration tested); 4% hRBC suspension in PBS pH 7.4, 37 °C, 1 h, absorbance 415 nm; relative to 0.1% Triton X-100. The method, then:
The hemolytic activity of the peptides was assessed using human red blood cells (hRBCs), following the method described by Erviana et al., with some modifications. Briefly, a 4% hRBC suspension was prepared in 1X phosphate-buffered saline (PBS, pH 7.4). Subsequently, 100 µL of the hRBC suspension was mixed with 100 µL of peptide samples at various concentrations (500, 200, 100, 50, and 25 µg/mL) in microcentrifuge tubes. The mixture was incubated at 37 °C for 1 h, followed by centrifugation at 100× g for 5 min. The supernatant was collected and transferred to a 96-well plate for absorbance measurement at 415 nm. The hemolytic activity of each peptide was subsequently calculated using the following equation: Hemolysis (%)=S/P×100
In the above equation, S represents the absorbance at 415 nm of the sample or negative control, while P represents the absorbance at 415 nm of the positive control. The peptide solvent was used as the negative control, whereas 0.1% Triton X-100 served as the positive control.

Setting [7] is: 25 µL from wells without visible growth spread on nutrient agar.
[8] abbreviates: 96-well plate serial dilution, 10 µL inoculum of 2.2 × 10^6 CFU/mL, OD600.

Turning to `CC1(C)S[C@@H]2[C@H](NC(=O)[C@H](N)c3ccccc3)C(=O)N2[C@H]1C(=O)O` [Ampicillin, reference compound], the MBC in series [1] (Escherichia coli, ATCC25922, 25 µL from wells without visible growth spread on nutrient agar) is 32 µg/mL (≈ 91.6 µM); in series [2] (Klebsiella pneumoniae, ATCC27736, 25 µL from wells without visible growth spread on nutrient agar) it was > 256 µg/mL; in series [3] (Pseudomonas aeruginosa, ATCC27853, 25 µL from wells without visible growth spread on nutrient agar) it was 256 µg/mL (≈ 733 µM); in series [4] (Staphylococcus aureus, ATCC25923, 25 µL from wells without visible growth spread on nutrient agar), 8 µg/mL (≈ 22.9 µM). For the same compound, the MIC was 4 µg/mL (≈ 11.4 µM) in series [1] (Escherichia coli, ATCC25922, 96-well plate serial dilution, 10 µL inoculum of 2.2 × 10^6 CFU/mL, OD600); > 256 µg/mL in series [2] (Klebsiella pneumoniae, ATCC27736, 96-well plate serial dilution, 10 µL inoculum of 2.2 × 10^6 CFU/mL, OD600); 128 µg/mL (≈ 366 µM) in series [3] (Pseudomonas aeruginosa, ATCC27853, 96-well plate serial dilution, 10 µL inoculum of 2.2 × 10^6 CFU/mL, OD600); 8 µg/mL (≈ 22.9 µM) in series [4] (Staphylococcus aureus, ATCC25923, 96-well plate serial dilution, 10 µL inoculum of 2.2 × 10^6 CFU/mL, OD600).

`NC[C@H]1O[C@H](O[C@H]2[C@H](O)[C@@H](O[C@H]3O[C@H](CO)[C@@H](O)[C@H](N)[C@H]3O)[C@H](N)C[C@@H]2N)[C@H](O)[C@@H](O)[C@@H]1O` [kanamycin]: in series [5], the “Cytoplasmic membrane permeabilization (SYTOX Green fluorescence intensity)” value is given as “low fluorescence intensity”.

Take GWINIIKIQKKRWW-NH2 [compound 3]: the “E. coli MBC” value in series [1] (setting [7]) was 256 µg/mL. In addition, in series [1] (setting [8]), the “E. coli MIC” value was determined as 128 µg/mL. In series [6], this compound displayed a Hemolytic activity of 7.74 ± 1.18%.

In the case of KIQKKIIKKIGRWW-NH2 [compound 6], the “E. coli MBC” value in series [1] (setting [7]) came to 8 µg/mL. Further, in series [1] (setting [8]), the “E. coli MIC” value is 8 µg/mL. For the same compound, the “K. pneumoniae MBC” value in series [2] (setting [7]) was 256 µg/mL. The “K. pneumoniae MIC” value in series [2] (setting [8]) amounted to 256 µg/mL. Moreover, the “P. aeruginosa MBC” value in series [3] (setting [7]) worked out at 32 µg/mL. The “P. aeruginosa MIC” value in series [3] (setting [8]) turned out to be 16 µg/mL. The “S. aureus MBC” value in series [4] (setting [7]) amounted to 64 µg/mL. Moreover, in series [4] (setting [8]), the “S. aureus MIC” value amounted to 32 µg/mL. The compound also gave a Hemolytic activity in series [6] of 2.35 ± 0.20%.

For KKILGGMAKAVRWW-NH2 [compound 9], in series [1] (setting [7]), the “E. coli MBC” value turned out to be 32 µg/mL. The “E. coli MIC” value in series [1] (setting [8]) came to 8 µg/mL. Further, the “K. pneumoniae MBC” value in series [2] (setting [7]) is 128 µg/mL. In addition, in series [2] (setting [8]), the “K. pneumoniae MIC” value was determined as 128 µg/mL. For the same compound, the “P. aeruginosa MBC” value in series [3] (setting [7]) was determined as 128 µg/mL. For the same compound, the “P. aeruginosa MIC” value in series [3] (setting [8]) was 64 µg/mL. In addition, the “S. aureus MBC” value in series [4] (setting [7]) was 128 µg/mL. For the same compound, in series [4] (setting [8]), the “S. aureus MIC” value came to 64 µg/mL. Moreover, the Hemolytic activity in series [6] was 2.39 ± 0.22%.

Regarding VHKLAKGIFKRWW-NH2 [compound 12], in series [1] (setting [7]), the “E. coli MBC” value is 16 µg/mL. In addition, the “E. coli MIC” value in series [1] (setting [8]) was 4 µg/mL. The “K. pneumoniae MBC” value in series [2] (setting [7]) is 256 µg/mL. The “K. pneumoniae MIC” value in series [2] (setting [8]) came to 256 µg/mL. Also, the “P. aeruginosa MBC” value in series [3] (setting [7]) was 64 µg/mL. Besides, the “P. aeruginosa MIC” value in series [3] (setting [8]) worked out at 32 µg/mL. In addition, in series [4] (setting [7]), the “S. aureus MBC” value worked out at 32 µg/mL. In series [4] (setting [8]), the “S. aureus MIC” value worked out at 32 µg/mL. Also, the Hemolytic activity in series [6] is on record as 1.67 ± 0.17%.
